# Measurements: article PMC10698726 (Molecular Pharmaceutics, 2023)
# Like-named read-outs stand apart in the source and are kept apart here.
# Assays:
# OCT2 = molecular target: T1, OCT2 (Homo sapiens, UniProt O15244); assay: Inhibition of model substrate uptake in OCT2-overexpressing HEK293 cells; conditions: 5 min; for ASP+ inhibition [%] / N-Ethyllidocaine inhibition [%] / (S,S)-Ethambutol inhibition [%] / inhibition at 5 min, 20 μM: OCT2, 20 μM inhibitor; for inhibition at 5 min, 20 μM: human, OCT2-overexpressing HEK293 cells
# T1 sequence (O15244 1-555): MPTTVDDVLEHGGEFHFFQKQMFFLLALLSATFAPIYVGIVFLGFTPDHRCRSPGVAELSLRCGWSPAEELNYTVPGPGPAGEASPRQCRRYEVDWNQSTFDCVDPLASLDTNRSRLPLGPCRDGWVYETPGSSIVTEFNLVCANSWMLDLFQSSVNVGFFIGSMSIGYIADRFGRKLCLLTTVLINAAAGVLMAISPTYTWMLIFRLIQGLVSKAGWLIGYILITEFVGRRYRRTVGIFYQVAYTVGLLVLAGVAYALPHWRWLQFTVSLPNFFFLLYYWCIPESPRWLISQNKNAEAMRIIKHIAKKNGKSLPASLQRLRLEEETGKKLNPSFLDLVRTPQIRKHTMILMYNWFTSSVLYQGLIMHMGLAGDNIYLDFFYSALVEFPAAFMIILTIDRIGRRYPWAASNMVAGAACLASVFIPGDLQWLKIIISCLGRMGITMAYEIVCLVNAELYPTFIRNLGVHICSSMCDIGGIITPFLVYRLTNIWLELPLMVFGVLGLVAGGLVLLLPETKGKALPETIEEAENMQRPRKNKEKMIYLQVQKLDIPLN
# OCT1 = molecular target: T2, OCT1 (Homo sapiens, UniProt O15245); assay: Inhibition of model substrate uptake in OCT1-overexpressing HEK293 cells; type: cell-based; parameters: expressed in transfected cells; host or cells: HEK293; conditions: for inhibition at 5 min, 20 μM: OCT1-overexpressing HEK293 cells
# T2 sequence (O15245 1-554): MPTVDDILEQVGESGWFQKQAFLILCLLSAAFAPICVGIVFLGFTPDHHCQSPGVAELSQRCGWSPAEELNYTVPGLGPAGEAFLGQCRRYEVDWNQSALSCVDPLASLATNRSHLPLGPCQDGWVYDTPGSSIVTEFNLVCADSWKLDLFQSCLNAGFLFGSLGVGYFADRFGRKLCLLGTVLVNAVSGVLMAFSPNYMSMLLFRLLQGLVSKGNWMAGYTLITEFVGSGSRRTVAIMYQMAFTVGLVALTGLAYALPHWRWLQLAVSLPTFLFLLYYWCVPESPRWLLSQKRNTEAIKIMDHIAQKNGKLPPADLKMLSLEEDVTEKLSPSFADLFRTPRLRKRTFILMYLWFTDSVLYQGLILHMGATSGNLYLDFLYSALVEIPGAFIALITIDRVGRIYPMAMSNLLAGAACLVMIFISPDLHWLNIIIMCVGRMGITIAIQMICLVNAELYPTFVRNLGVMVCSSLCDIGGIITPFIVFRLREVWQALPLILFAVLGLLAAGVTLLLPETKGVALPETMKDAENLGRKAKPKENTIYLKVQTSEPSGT
# Method: Koepsell and Gorbulev (University of Würzburg, Germany).
# Fluorescence quantification was performed in technical duplicates.
# OCT3 = molecular target: T3, OCT3 (Homo sapiens, UniProt O75751); assay: Inhibition of model substrate uptake in OCT3-overexpressing HEK293 cells; type: cell-based; conditions: for ASP+ inhibition [%] / (S)-Zolmitriptan inhibition [%] / (S,S)-Ethambutol inhibition [%]: OCT3
# T3 construct: expressed in transfected cells; host or cells: HEK293
# T3 sequence (O75751 1-556): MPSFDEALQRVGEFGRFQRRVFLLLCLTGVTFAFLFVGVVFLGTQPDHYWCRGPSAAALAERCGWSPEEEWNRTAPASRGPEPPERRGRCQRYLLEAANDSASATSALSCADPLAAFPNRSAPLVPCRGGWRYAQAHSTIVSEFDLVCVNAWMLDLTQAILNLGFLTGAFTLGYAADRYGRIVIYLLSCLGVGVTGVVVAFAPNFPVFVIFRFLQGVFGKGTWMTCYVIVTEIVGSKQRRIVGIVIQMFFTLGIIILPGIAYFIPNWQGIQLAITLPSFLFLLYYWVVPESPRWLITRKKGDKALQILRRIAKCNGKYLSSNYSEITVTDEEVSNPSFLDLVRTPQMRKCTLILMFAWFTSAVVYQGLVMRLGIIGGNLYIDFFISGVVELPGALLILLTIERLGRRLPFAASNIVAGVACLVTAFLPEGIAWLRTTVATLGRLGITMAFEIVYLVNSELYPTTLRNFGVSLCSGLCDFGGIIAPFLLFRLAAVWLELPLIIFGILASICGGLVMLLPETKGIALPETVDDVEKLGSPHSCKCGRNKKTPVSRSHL
# Procedure, shortened: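 Transporter-overexpressing HEK293 cells were incubated 5 min in HBSS+ with 2 μM model substrate, with or without 20 μM inhibitor or increasing inhibitor concentrations. Uptake was read as ASP^+ fluorescence or by LC–MS/MS, with empty-vector uptake subtracted. IC50 came from a Hill fit of activity versus log concentration.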
# [1] = OCT1, 20 μM inhibitor, 2 μM ASP+, 5 min, mean of three experiments
# [2] = HEK293, 5 min, read-out: (S)-Zolmitriptan inhibition [%]
# [3] = HEK293, 5 min, read-out: (S,S)-Ethambutol inhibition [%]
# [4] = 20 μM inhibitor, 2 μM ASP+, 5 min
# [5] = OCT1, 20 μM inhibitor, 2 μM (S,S)-ethambutol, 5 min
# [6] = OCT1, 20 μM inhibitor, 2 μM sumatriptan, 5 min
# [7] = 20 μM inhibitor, 2 μM (S)-zolmitriptan, 5 min
# [8] = 20 μM inhibitor, 2 μM (S,S)-ethambutol, 5 min
# [9] = HEK293, OCT3, 20 μM inhibitor, 2 μM ASP+, 5 min, read-out: ASP+ inhibition [%]
# [10] = pH 7.4, probe ASP+ (2 μM), ASP+ inhibition [%], 2 μM ASP+
# [11] = pH 7.4, probe N-ethyllidocaine (2 μM), N-Ethyllidocaine inhibition [%], 2 μM N-ethyllidocaine
# [12] = human, pH 7.4, probe sumatriptan (2 μM), OCT1, 20 μM inhibitor, 2 μM sumatriptan, 5 min, read-out: Sumatriptan inhibition [%]
# [13] = HEK293, 5 min, read-out: (S,S)-Ethambutol inhibition [%], OCT3, 20 μM inhibitor, 2 μM (S,S)-ethambutol, 5 min
SMILES,ASP+ inhibition [%] (OCT2; 2 μM ASP+),N-Ethyllidocaine inhibition [%] (OCT2; 2 μM N-ethyllidocaine),ASP+ inhibition [%] (OCT1; [1]),"Sumatriptan inhibition [%] (OCT1; human, pH 7.4)",inhibition at 20 µM (OCT3; [2]) [%],inhibition at 20 µM (OCT3; [3]) [%],ASP+ inhibition [%] (OCT3; [4]),"(S,S)-Ethambutol inhibition [%] (OCT2; 2 μM (S,S)-ethambutol)","(S,S)-Ethambutol inhibition [%] (OCT1; [5])",Sumatriptan inhibition [%] (OCT1; [6]),(S)-Zolmitriptan inhibition [%] (OCT3; [7]),"(S,S)-Ethambutol inhibition [%] (OCT3; [8])",inhibition at 20 µM (OCT3; [9]) [%],"inhibition at 5 min, 20 μM (OCT2; [10]) [%]","inhibition at 5 min, 20 μM (OCT2; [11]) [%]","inhibition at 5 min, 20 μM (OCT1; [12]) [%]",inhibition at 20 µM (OCT3; [13]) [%],further results
CC(C)C[C@@H](N(C)C)C1(c2ccc(Cl)cc2)CCC1 [(R)-Sibutramine],81.6,51.2,41.5,74.0,38.1,35.5,2.6,–,–,–,–,–,–,–,–,–,–,–
CCN(CC)CC#CCOC(=O)[C@@](O)(c1ccccc1)C1CCCCC1 [(S)-Oxybutynine],92.8,48.6,59.3,–,–,–,40.5,24.5,96.3,83.5,65.2,75.7,–,–,–,–,–,"IC50 (OCT2; IC50, OCT2, Table S5, 2 μM ASP+ as model substrate): 20.1 µM; IC50 (OCT1; IC50, OCT1, Table S5, 2 μM ASP+ or ethambutol as model substrate, 5 min): 141 µM; IC50 (OCT3; IC50, OCT3, Table S5, 2 μM ASP+ or ethambutol as model substrate, 5 min): 40 µM"
COc1ccc([C@H](CN(C)C)C2(O)CCCCC2)cc1 [(R)-Venlafaxine],29.1,23.1,–,70.8,12.6,12.3,–,–,–,–,–,–,-2.8,–,–,–,–,–
Cc1cccc(C)c1OC[C@H](C)N [(S)-Mexiletine],–,–,–,–,–,–,–,–,–,–,–,–,-6.6,52.9,51.3,84.3,11.8,"inhibition at 5 min, 20 μM (OCT2; pH 7.4, probe (S,S)-ethambutol (2 μM), (S,S)-Ethambutol inhibition [%], 2 μM (S,S)-ethambutol): 58.7%; inhibition at 5 min, 20 μM (OCT1; human, pH 7.4, probe (S,S)-ethambutol (2 μM), (S,S)-Ethambutol inhibition [%], OCT1, 20 μM inhibitor, 2 μM (S,S)-ethambutol, 5 min): 78%; inhibition at 5 min, 20 μM (OCT1; human, pH 7.4, probe ASP+ (2 μM), OCT1, 20 μM inhibitor, 2 μM ASP+, 5 min, mean of three experiments, read-out: ASP+ inhibition [%]): 40.1%; inhibition at 20 µM (OCT3; HEK293, 5 min, read-out: (S)-Zolmitriptan inhibition [%], OCT3, 20 μM inhibitor, 2 μM (S)-zolmitriptan, 5 min): 30%"
O=C(OC1C[N+]2(CCCOc3ccccc3)CCC1CC2)C(O)(c1cccs1)c1cccs1 [(S)-Aclidinium],101.8,57.3,78.8,–,–,–,37.7,2.7,101.4,93.8,53.3,67.7,–,–,–,–,–,–
N[C@@H]1CONC1=O [(R)-Cycloserine],–,–,-0.8,–,–,–,–,5.0,17.6,–,-0.4,–,17.8,12.3,13.6,28,7.4,–
